{"source": "paper PMC11695203", "about": "“A new peptide inhibitor of C1QBP exhibits potent anti‐tumour activity against triple negative breast cancer by impairing mitochondrial function and suppressing homologous recombination repair” (Clinical and Translational Medicine, 2025)", "key": {"[1]": {"test_system": "C1QBP", "settings": "cited from earlier work", "source_text": "C1QBP, targeted by PDBAG1, predominantly localises in the mitochondrial matrix and plays a crucial role in mitochondrial protein translation and function.[3] It represents a promising therapeutic target for various human cancers, including breast cancer. We observed significant overexpression of C1QBP in the TNBC subtype, which correlated with worse DFS. Based on our findings, we believe PDBAG1 primarily affects tumour cells, with minimal toxicity to normal cells. Although PDBAG1's precursor peptide is derived from normal adipose tissue, its impact on adipose metabolism is likely less pronounc ..."}, "[2]": {"test_system": "MDA-MB-231 cells", "experiment": "CCK-8 assay, MDA-MB-231", "format": "cell-based, human", "settings": "CCK-8, MDA-MB-231 and MDA-MB-468, co-treated 72 h / 24 h", "protocol": "The cells were cultured at the corresponding cell densities in 96‐well plates. Following treatment with specific concentrations of reagents for designated durations, the CCK8 reagent was added to each well at a final ratio of 10% (v/v). After incubation for 2 h, the absorbance at 450 nm was measured using a microplate reader (H4, Synergy). For the Edu assay, logarithmic growth phase cells were inoculated into 96‐well plates at a density of 3 × 10^4 cells/mL. Subsequently, they were treated with specific concentrations of reagents for designated durations and then replaced with EdU medium containing a final concentration of 10 µmol/L. The cells were incubated for an additional period of 2 h. Following PBS washing and fixation with 4% paraformaldehyde for 30 min, Apollo staining reaction solution was added according to instructions and allowed to react for another 30 min. This was followed by addition of DAPI staining reaction solution for a duration of 10 min before washing again with PBS. Three randomly selected fields of vision from each group in each well were calculated and photographed under a fluorescence microscope. […] Three random fields of view were selected to quantify the number of cells that traversed through the microporous membrane."}, "[3]": {"test_system": "MDA-MB-231 xenograft", "experiment": "MDA-MB-231 tumour model in nude mice", "format": "in vivo, BALB/c nude mice", "settings": "PJ34-HCL combination study, harvested tumours", "protocol": "(§1) Four‐week‐old BALB/c nude mice (Charles River Laboratories, Beijing, China) were subcutaneously inoculated in the breast fat pad with 1 × 10^7 MDA‐MB‐231 cells. The treatment group received 10 mg/kg PDBAG1, while the control group was administered an equal volume of PBS. For preliminary experiment of immunocompetent mice, 4‐week‐old BALB/c mice (Charles River Laboratories) were subcutaneously inoculated in the mammary fat pad with 1 × 10^6 4T1 cells. The treatment group received 10 mg/kg PDBAG1, while the control group was administered an equal volume of PBS. For evaluating the PJ34‐HCL combination, 28 randomly assigned BALB/c nude mice were divided into respective treatment groups as follows: Group 1 served as a negative control and received PBS; Group 2 received intraperitoneal injections of 10 mg/kg PDBAG1 every 3 days; Group 3 received 1 mg/kg PJ34‐HCL every 3 days; Group 4 was treated with a combination of 10 mg/kg PDBAG1 and 1 mg/kg PJ34‐HCL every 3 days. Both PDBAG1 and PJ34‐HCL were dissolved in specific concentrations of normal saline and administered intraperitoneally. All mice were sacrificed 4 weeks after inoculation, and their subcutaneous xenografts were resected and weighed. Subsequently, formalin‐fixed subcutaneous tumours were processed into paraffin‐embedded sections for routine IHC analysis. […]"}, "[4]": {"experiment": "In vivo toxicity: body weight and HE staining of spleen, liver, kidney", "settings": "PDBAG1 10 mg/kg, PJ34-HCL 1 mg/kg i.p. every 3 days", "protocol": "as §1"}, "[5]": {"test_system": "MDA-MB-231 and MDA-MB-468 cells", "settings": "FITC-labelled PDBAG1 50 µM, 6 h, fluorescence microscopy", "experimental": "The cells were seeded in a 24‐well plate, and FITC‐labelled PDBAG1 was added to the cell culture medium at a final concentration of 50 µM. After three washes with PBS, performed 6 h post peptide addition, the samples were fixed with 4% paraformaldehyde for 15 min and stained with DAPI (5 µg/mL) for 5 min. Following PBS washing, fluorescence microscopy was employed for observation."}, "[6]": {"test_system": "HEK-293T and MCF-10A cell lines", "settings": "30 μM, 24 hours"}, "[7]": {"target": "T1, human C1QBP 74–282 (human, UniProt Q07021 74-282)", "T1 construct": "also called p32; source: vector a gift from Dr Adrian R. Krainer", "T1 sequence (looked up)": "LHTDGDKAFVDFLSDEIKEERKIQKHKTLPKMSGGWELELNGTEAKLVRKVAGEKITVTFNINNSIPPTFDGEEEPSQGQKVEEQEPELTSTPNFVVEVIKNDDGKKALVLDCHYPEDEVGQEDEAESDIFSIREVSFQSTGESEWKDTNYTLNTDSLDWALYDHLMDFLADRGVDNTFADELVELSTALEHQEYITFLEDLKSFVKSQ", "experiment": "ITC; PDBAG1 (500 µM) in the syringe into C1QBP 74–282 (17.0 µM) in the cell, 25°C, MicroCal VP ITC, no Zn2+, one set-of-sites model; buffer by the methods 20 mM HEPES pH 7.5, 600 mM NaCl, 1 mM EDTA, 1 mM EGTA, 5% glycerol, by the legend 20 mM potassium phosphate, 100 mM NaCl, pH 7.4", "settings": "both partners purified"}}}
{"molecule": "CGKRK [tumour-specific vascular homing peptide]", "values": [{"measurement": "Binding to C1QBP", "setting": "[1]", "value": "can bind to cell surface‐associated C1QBP"}]}
{"molecule": "CN(C)CC(=O)Nc1ccc2[nH]c(=O)c3ccccc3c2c1.Cl", "note": "[PJ34‐HCL]", "values": [{"measurement": "Cell viability with PARP inhibitor, alone or combined with PDBAG1", "setting": "[2]", "value": "exhibited significant effects"}, {"measurement": "C1QBP protein in tumour tissue (IHC, western blot)", "setting": "[3]", "value": "no substantial changes"}]}
{"molecule": "CGNKRTRGC [LyP‐1]", "values": [{"measurement": "Binding to C1QBP", "setting": "[1]", "value": "can bind to cell surface‐associated C1QBP"}]}
{"molecule": "Ac-GRKKRRQRRRPPQQASKKVCIVGSGNWGSAIA-NH2 [PDBAG1]", "values": [{"measurement": "Body weight during or after drug administration", "setting": "[4]", "value": "no significant differences"}, {"measurement": "HE staining of spleen, liver and kidney", "setting": "[4]", "value": "no notable deviations from normal structure and morphology"}, {"measurement": "Cell penetration", "setting": "[5]", "value": "potent cell‐penetrating properties"}, {"measurement": "Morphological alterations in non-tumour cells", "setting": "[6]", "value": "no obvious in morphological alterations"}]}
{"molecule": "GRKKRRQRRRPPQQASKKVCIVGSGNWGSAIA (stretch of glycerol-3-phosphate dehydrogenase 1 (GPD1), found by peptidomics in benign breast adipose tissue of patients; also called peptide PDBAG1; source: synthetic peptide (Fmoc solid-phase synthesis, Shanghai Science Peptide Biological Technology Co))", "note": "[PDBAG1 (peptide derived from breast adipose tissue GPD1)]", "values": [{"measurement": "Kd", "setting": "[7]", "value": 334, "unit": "nM"}]}
